Test results as given in PMC12000319, “Proton conductance by human uncoupling protein 1 is inhibited by purine and pyrimidine nucleotides” (The EMBO Journal, 2025).
Several values for one entry are separate records, joined by “and”; a condition that tells them apart may be missing. Equal entries are not always repeated. Where two headings read alike, the source gives them in different places.

Experiments:
[1] = system: UCP1; set-up: method as in Heaton and Nicholls, 1977; Divakaruni et al, 2012; settings: whole mitochondria; ref Heaton and Nicholls, 1977; Divakaruni et al, 2012; cited from earlier work
[2] = molecular target: T1, UCP1 (Homo sapiens, UniProt P25874); assay: Differential scanning fluorimetry (nanoDSF) thermal stability shift assay; type: binding; settings: for ΔTm at 1000 µM: read-out: thermal shift (ΔTm)
T1 construct: His8 (N, cleaved yes); Factor Xa protease cleavage site (N, cleaved yes); made in house; host or cells: Saccharomyces cerevisiae strain W303.1B
T1 sequence (P25874 1-307): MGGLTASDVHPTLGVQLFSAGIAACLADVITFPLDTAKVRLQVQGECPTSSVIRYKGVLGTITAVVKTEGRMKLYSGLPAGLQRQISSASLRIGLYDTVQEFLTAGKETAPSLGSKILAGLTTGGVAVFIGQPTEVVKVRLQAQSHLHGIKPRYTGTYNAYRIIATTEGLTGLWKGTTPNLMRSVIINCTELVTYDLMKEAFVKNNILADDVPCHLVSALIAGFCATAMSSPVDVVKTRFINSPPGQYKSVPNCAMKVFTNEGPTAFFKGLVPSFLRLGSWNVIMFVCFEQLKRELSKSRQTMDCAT

[3] = molecular target: T1, UCP1; assay: Isothermal titration calorimetry of nucleotide binding; set-up: isotherm data point (enthalpy change per injection): unit not given here; settings: for isotherm data point (enthalpy change per injection): representative isotherm;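 on all read-outs here: purified human UCP1 in cacodylate buffer with lauryl maltose neopentyl glycol and cardiolipin, titrated with nucleotides, isotherms fitted by one-site model yielding ΔH, Kd and stoichiometry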
[4] = ITC, pH 6.0, 20 °C, mean ± standard deviation of three biological repeats (Fig. 2A-E)
[5] = ITC, single biological repeats (source data Fig. 2F)

Nc1ccn([C@@H]2O[C@H](COP(=O)(O)OP(=O)(O)O)[C@@H](O)[C@H]2O)c(=O)n1 [CDP]
competition with GDP binding [1]: unable to displace the binding of GDP

Nc1nc2c(ncn2[C@@H]2O[C@H](COP(=O)(O)OP(=O)(O)OP(=O)(O)O)[C@@H](O)[C@H]2O)c(=O)[nH]1 [GTP, guanosine triphosphate]
temperature shift (ΔTm) ([2]; 1 mM nucleotide, pH 6.0, detergent-solubilised UCP1, mean of three biological repeats): 16.2 °C | ΔTm at 1000 µM ([2]; pH 6, 1 mM nucleotide, pH 6.0, single repeats (source data Fig. 1D)): 16 °C | ΔTm at 1000 µM ([2]; pH 6.5, 1 mM nucleotide, pH 6.5, single repeats (source data Fig. 1D)): 12 °C | ΔTm at 1000 µM ([2]; pH 7, 1 mM nucleotide, pH 7.0, single repeats (source data Fig. 1D)): 7.8 °C | ΔTm at 1000 µM ([2]; pH 7.5, 1 mM nucleotide, pH 7.5, single repeats (source data Fig. 1D)): 3.6 °C | binding affinity to UCP1 (in words) ([3]; ITC): intermediary affinities | Kd [3, 4]: 3.77 ± 0.12 µM | Kd [3, 5]: 3.68 µM and 3.9 µM and 3.73 µM | isotherm data point (enthalpy change per injection) ([3]; Molar ratio (Nucleotide/UCP) 0.120417, pH 6.0, 20 °C): -20.3045 | isotherm data point (enthalpy change per injection) ([3]; Molar ratio (Nucleotide/UCP) 0.181226, pH 6.0, 20 °C): -19.4276 | isotherm data point (enthalpy change per injection) ([3]; Molar ratio (Nucleotide/UCP) 0.242439, pH 6.0, 20 °C): -18.5029 | isotherm data point (enthalpy change per injection) ([3]; Molar ratio (Nucleotide/UCP) 0.304059, pH 6.0, 20 °C): -18.707 | isotherm data point (enthalpy change per injection) ([3]; Molar ratio (Nucleotide/UCP) 0.366087, pH 6.0, 20 °C): -18.3445 | isotherm data point (enthalpy change per injection) ([3]; Molar ratio (Nucleotide/UCP) 0.428528, pH 6.0, 20 °C): -17.3071 | isotherm data point (enthalpy change per injection) ([3]; Molar ratio (Nucleotide/UCP) 0.491383, pH 6.0, 20 °C): -16.412 | isotherm data point (enthalpy change per injection) ([3]; Molar ratio (Nucleotide/UCP) 0.554656, pH 6.0, 20 °C): -17.0687 | isotherm data point (enthalpy change per injection) ([3]; Molar ratio (Nucleotide/UCP) 0.618348, pH 6.0, 20 °C): -15.1625 | isotherm data point (enthalpy change per injection) ([3]; Molar ratio (Nucleotide/UCP) 0.682464, pH 6.0, 20 °C): -14.4377 | isotherm data point (enthalpy change per injection) ([3]; Molar ratio (Nucleotide/UCP) 0.747006, pH 6.0, 20 °C): -12.3158 | isotherm data point (enthalpy change per injection) ([3]; Molar ratio (Nucleotide/UCP) 0.811976, pH 6.0, 20 °C): -11.9274 | isotherm data point (enthalpy change per injection) ([3]; Molar ratio (Nucleotide/UCP) 0.877378, pH 6.0, 20 °C): -11.0392 | isotherm data point (enthalpy change per injection) ([3]; Molar ratio (Nucleotide/UCP) 0.943214, pH 6.0, 20 °C): -8.777 | isotherm data point (enthalpy change per injection) ([3]; Molar ratio (Nucleotide/UCP) 1.00949, pH 6.0, 20 °C): -7.389 | isotherm data point (enthalpy change per injection) ([3]; Molar ratio (Nucleotide/UCP) 1.0762, pH 6.0, 20 °C): -6.878 | isotherm data point (enthalpy change per injection) ([3]; Molar ratio (Nucleotide/UCP) 1.14336, pH 6.0, 20 °C): -5.2039 | isotherm data point (enthalpy change per injection) ([3]; Molar ratio (Nucleotide/UCP) 1.21096, pH 6.0, 20 °C): -4.2804 | isotherm data point (enthalpy change per injection) ([3]; Molar ratio (Nucleotide/UCP) 1.27901, pH 6.0, 20 °C): -2.298 | isotherm data point (enthalpy change per injection) ([3]; Molar ratio (Nucleotide/UCP) 1.34751, pH 6.0, 20 °C): -2.606 | isotherm data point (enthalpy change per injection) ([3]; Molar ratio (Nucleotide/UCP) 1.41647, pH 6.0, 20 °C): -2.5907 | isotherm data point (enthalpy change per injection) ([3]; Molar ratio (Nucleotide/UCP) 1.48589, pH 6.0, 20 °C): -0.9936 | isotherm data point (enthalpy change per injection) ([3]; Molar ratio (Nucleotide/UCP) 1.55577, pH 6.0, 20 °C): -1.473 | isotherm data point (enthalpy change per injection) ([3]; Molar ratio (Nucleotide/UCP) 1.62611, pH 6.0, 20 °C): -0.9907 | isotherm data point (enthalpy change per injection) ([3]; Molar ratio (Nucleotide/UCP) 1.69692, pH 6.0, 20 °C): -0.3592 | isotherm data point (enthalpy change per injection) ([3]; Molar ratio (Nucleotide/UCP) 1.76819, pH 6.0, 20 °C): -0.2978 | isotherm data point (enthalpy change per injection) ([3]; Molar ratio (Nucleotide/UCP) 1.83995, pH 6.0, 20 °C): 0.5154 | isotherm data point (enthalpy change per injection) ([3]; Molar ratio (Nucleotide/UCP) 1.91217, pH 6.0, 20 °C): 0.06373 | isotherm data point (enthalpy change per injection) ([3]; Molar ratio (Nucleotide/UCP) 1.98488, pH 6.0, 20 °C): 0.2135

O=c1ccn([C@@H]2O[C@H](COP(=O)(O)OP(=O)(O)OP(=O)(O)O)[C@@H](O)[C@H]2O)c(=O)[nH]1 [UTP, uridine triphosphate]
Kd [3, 4]: 2.86 ± 0.49 µM | Kd [3, 5]: 3.37 µM and 2.82 µM and 2.4 µM
